{"source": "patent US7420100B2", "about": "“Methods and compositions relating to HDAC 4 and 5 regulation of cardiac gene expression” (Board of Regents, The University of Texas System, priority 1999, dated 2008)", "key": {"[1]": {"system": "hypertrophic response to endothelin-1", "conditions": "in vitro; cited from earlier work"}, "cultured cardiomyocytes": {"system": "cultured cardiomyocytes", "conditions": "α-adrenergic stimulation and Ca2+ channel agonists; cited from earlier work"}, "[2]": {"system": "HDAC 5-green fluorescent protein (GFP) chimeric molecule", "test": "subcellular distribution of HDAC 5-GFP in CaMKI-expressing cells exposed to leptomycinB", "assay_type": "cell-based", "conditions": "CaMKI-expressing cells treated with leptomycinB", "text": "In principle, nuclear exclusion of HDAC 5 could result from inhibition of nuclear import or stimulation of nuclear export. To distinguish between these possibilities, the subcellular distribution of an HDAC 5-green fluorescent protein (GFP) chimeric molecule was monitored in cells exposed to leptomycinB, a fungal toxin that blocks nuclear export. In CaMK1 expressing cells, HDAC 5 is localized to the cytoplasm."}, "[3]": {"system": "GAL4-MEF2C fusion protein", "test": "activation of GAL4-MEF2C fusion protein in cardiomyocytes", "assay_type": "cell-based, rat", "conditions": "stimulation of cardiomyocytes", "method": "Preparation of primary rat cardiomyocytes. Cardiomyocyte cultures are prepared by dissociation of 1-day old neonatal rat hearts and were differentially plated to remove fibroblasts. To induce the hypertrophic response, AngII and PE are added to cardiomyocyte cultures at 10 nM and 10 μM, respectively, in serum-free M199 media. The culture media containing either agonist is changed every 12 hours for a period of 72 hours.\nIn light of the ability of MEF2 to respond to calcium-dependent signal transduction pathways in T cells, the inventors have investigated whether the same pathways also activate MEF2 in cardiomyocytes. […] When the C-terminus of MEF2C, which contains the transcription activation domains (TADs), but lacks the MADS and MEF2 domains required for DNA binding and dimerization, is fused to the DNA binding domain of the yeast transcription factor GAL4, the resulting GAL4-MEF2C fusion protein retains sensitivity to calcineurin and CaMKIV. This GAL4-MEF2C fusion protein is also activated by stimulation of cardiomyocytes with the hypertrophic agonist phenylephrine (PE)."}, "BZLF1": {"system": "BZLF1", "conditions": "cited from earlier work"}}, "data": [{"molecule": "COc1ccc(S(=O)(=O)N(CCO)c2ccccc2CN(C)C/C=C/c2ccc(Cl)cc2)cc1", "note": "[KN-93]", "values": [{"measurement": "effect on hypertrophic response to endothelin-1", "setting": "[1]", "result": "can block the hypertrophic response"}]}, {"molecule": "NCCCCCCNS(=O)(=O)c1cccc2c(Cl)cccc12", "note": "[W-7]", "values": [{"measurement": "effect on hypertrophy", "setting": "cultured cardiomyocytes", "result": "prevents hypertrophy"}]}, {"molecule": "CCC(=C/[C@H](C)C/C=C/C(C)=C/[C@@H](C)C(=O)[C@@H](C)[C@H](O)[C@@H](C)C/C(C)=C/C(=O)O)/C=C/[C@@H]1OC(=O)C=C[C@@H]1C", "note": "[leptomycinB]", "values": [{"measurement": "subcellular localization of HDAC 5", "setting": "[2]", "result": "translocation of HDAC 5 from the cytoplasm to the nucleus"}, {"measurement": "time course of HDAC 5 translocation from cytoplasm to nucleus", "setting": "[2]", "result": 4, "unit": "h"}]}, {"molecule": "CNC[C@H](O)c1cccc(O)c1", "note": "[phenylephrine]", "values": [{"measurement": "activation of GAL4-MEF2C fusion protein", "setting": "[3]", "result": "activated"}]}, {"molecule": "cyclosporin A [CsA]", "values": [{"measurement": "effect on BZLF1 transcription", "setting": "BZLF1", "result": "inhibited"}]}]}
